Test results from PubChem BioAssay AID248 (DTP/NCI, 2004).
Several values for one entry are separate records, joined by “and”; a condition that tells them apart may be missing. Identical values can stand only once. Inconclusive results and toxic doses are left out. No stated cut-off is given here; in the data, active means T/C of 150% or more; inactive means T/C below 125%.

Test system: L1210 leukemia ip in BDF1 mice, survival T/C
Test: NCI In Vivo Anticancer Drug Screen. Data for tumor model L1210 Leukemia (intraperitoneal) in B6D2F1 (BDF1) mice
Details: endpoint: mean survival time, higher = longer survival
Outline: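 Mice bearing the transplanted tumor received compound or vehicle. Survival of the treated group was divided by that of the vehicle-treated control group to give the ratio.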

[1] = dose: 100.0 mg/kg/injection, schedule: Q01DX009 (ip), vehicle: Klucel (hydroxypropylcellulose) (HPC)
[2] = dose: 200.0 mg/kg/injection, schedule: Q01DX009 (ip), vehicle: Klucel (hydroxypropylcellulose) (HPC)
[3] = dose: 400.0 mg/kg/injection, schedule: Q01DX009 (ip), vehicle: Klucel (hydroxypropylcellulose) (HPC)
[4] = dose: 100.0 mg/kg/injection, schedule: Q01DX001 (ip), vehicle: saline with Tween-80
[5] = dose: 25.0 mg/kg/injection, schedule: Q01DX009 (ip), vehicle: saline
[6] = dose: 50.0 mg/kg/injection, schedule: Q01DX009 (ip), vehicle: saline
[7] = dose: 100.0 mg/kg/injection, schedule: Q01DX009 (ip), vehicle: saline
[8] = dose: 100.0 mg/kg/injection, schedule: Q04DX003 (ip), vehicle: saline
[9] = dose: 25.0 mg/kg/injection, schedule: Q01DX001 (ip), vehicle: saline
[10] = dose: 50.0 mg/kg/injection, schedule: Q01DX001 (ip), vehicle: saline
[11] = dose: 100.0 mg/kg/injection, schedule: Q01DX001 (ip), vehicle: saline
[12] = dose: 200.0 mg/kg/injection, schedule: Q04DX003 (ip), vehicle: saline
[13] = dose: 100.0 mg/kg/injection, schedule: Q01DX001 (ip), vehicle: carboxymethylcellulose (CMC)
[14] = dose: 100.0 mg/kg/injection, schedule: Q04DX002 (ip), vehicle: saline
[15] = dose: 200.0 mg/kg/injection, schedule: Q04DX002 (ip), vehicle: saline
[16] = dose: 400.0 mg/kg/injection, schedule: Q04DX003 (ip), vehicle: saline

Measured: T/C

SCCCCN1CCCCC1
inactive: dose: 3.0 mg/kg/injection, schedule: Q01DX001 (ip), vehicle: carboxymethylcellulose (CMC) 102 % of control | dose: 6.0 mg/kg/injection, schedule: Q01DX001 (ip), vehicle: carboxymethylcellulose (CMC) 100 % of control | dose: 12.0 mg/kg/injection, schedule: Q01DX001 (ip), vehicle: carboxymethylcellulose (CMC) 107 % of control | dose: 25.0 mg/kg/injection, schedule: Q01DX001 (ip), vehicle: carboxymethylcellulose (CMC) 95 % of control

CC1(C)C2CC3C(=CCCC3C#N)C1C2 (stereo unspecified)
inactive: [1] 105 % of control | dose: 100.0 mg/kg/injection, schedule: Q04DX003 (ip), vehicle: Klucel (hydroxypropylcellulose) (HPC) 97 % of control | [2] 97 % of control | dose: 200.0 mg/kg/injection, schedule: Q04DX003 (ip), vehicle: Klucel (hydroxypropylcellulose) (HPC) 95 % of control | [3] 103 % of control | dose: 400.0 mg/kg/injection, schedule: Q04DX003 (ip), vehicle: Klucel (hydroxypropylcellulose) (HPC) 92 % of control

CC(=O)OC(CC[P+](c1ccccc1)(c1ccccc1)c1ccccc1)(C(=O)c1ccccc1)c1ccccc1 (stereo unspecified)
inactive: [4] 95 % of control

C(/C=C/C=C/N1CCCCC1)=[N+]1CCCCC1
inactive: dose: 0.39 mg/kg/injection, schedule: Q04DX003 (ip), vehicle: saline 112 % of control | dose: 0.78 mg/kg/injection, schedule: Q04DX003 (ip), vehicle: saline 93 % of control | dose: 1.56 mg/kg/injection, schedule: Q04DX003 (ip), vehicle: saline 105 % of control

O=C(O)c1cccc(C(=O)O)[n+]1[O-]
inactive: dose: 50.0 mg/kg/injection, schedule: Q04DX002 (ip), vehicle: Klucel (hydroxypropylcellulose) (HPC) 101 % of control | dose: 100.0 mg/kg/injection, schedule: Q04DX002 (ip), vehicle: Klucel (hydroxypropylcellulose) (HPC) 95 % of control

[N-]=[N+]=Nc1ccc(Cl)cc1C(=O)c1ccccc1
inactive: [5] 120 % of control | dose: 25.0 mg/kg/injection, schedule: Q04DX003 (ip), vehicle: saline 98 % of control | [6] 109 % of control | dose: 50.0 mg/kg/injection, schedule: Q04DX003 (ip), vehicle: saline 104 % of control | [7] 111 % of control | [8] 102 % of control and 113 % of control

O=C(OCCCl)C1C2CCC(O2)C1C(=O)OCCCl (stereo unspecified)
inactive: dose: 1.56 mg/kg/injection, schedule: Q04DX002 (ip), vehicle: Klucel (hydroxypropylcellulose) (HPC) 103 % of control

NC(=O)c1ccc([N+](=O)[O-])cc1C(N)=O
inactive: [9] 111 % of control | [10] 97 % of control | [11] 104 % of control

COC(=O)c1ccccc1NC(=O)c1ccc(C(=O)Nc2ccccc2C(=O)OC)cc1
inactive: [1] 107 % of control | [2] 92 % of control | [3] 92 % of control

C(CSC1=NCCN1)CSC1=NCCN1
inactive: dose: 6.25 mg/kg/injection, schedule: Q01DX009 (ip), vehicle: saline 105 % of control | dose: 12.5 mg/kg/injection, schedule: Q01DX009 (ip), vehicle: saline 111 % of control | [5] 107 % of control | [6] 117 % of control | [7] 115 % of control | [8] 100 % of control | dose: 200.0 mg/kg/injection, schedule: Q01DX009 (ip), vehicle: saline 115 % of control | [12] 108 % of control

O=c1nc(NO)ccn1C1CCCCO1 (stereo unspecified)
inactive: [13] 95 % of control | dose: 200.0 mg/kg/injection, schedule: Q01DX001 (ip), vehicle: carboxymethylcellulose (CMC) 95 % of control | dose: 400.0 mg/kg/injection, schedule: Q01DX001 (ip), vehicle: carboxymethylcellulose (CMC) 95 % of control

CC(=O)OC1=CC(=O)c2ccccc2C1=O
inactive: dose: 5.0 mg/kg/injection, schedule: Q01DX001 (ip), vehicle: carboxymethylcellulose (CMC) 101 % of control | dose: 10.0 mg/kg/injection, schedule: Q01DX001 (ip), vehicle: carboxymethylcellulose (CMC) 101 % of control | dose: 20.0 mg/kg/injection, schedule: Q01DX001 (ip), vehicle: carboxymethylcellulose (CMC) 101 % of control | dose: 40.0 mg/kg/injection, schedule: Q01DX001 (ip), vehicle: carboxymethylcellulose (CMC) 107 % of control | dose: 80.0 mg/kg/injection, schedule: Q01DX001 (ip), vehicle: carboxymethylcellulose (CMC) 107 % of control | [13] 104 % of control

C=CCOC(=O)C(C)(O)C(Cl)c1ccccc1 (stereo unspecified)
inactive: [14] 103 % of control | [15] 100 % of control | dose: 400.0 mg/kg/injection, schedule: Q04DX002 (ip), vehicle: saline 100 % of control

CC(CC(=O)O)[Se][Se]C(C)CC(=O)O (stereo unspecified)
inactive: dose: 100.0 mg/kg/injection, schedule: Q01DX001 (ip), vehicle: Klucel (hydroxypropylcellulose) (HPC) 108 % of control | dose: 200.0 mg/kg/injection, schedule: Q01DX001 (ip), vehicle: Klucel (hydroxypropylcellulose) (HPC) 102 % of control

Cc1cc(C)c(C(C)C)cc1C(C)C
inactive: [8] 100 % of control | [12] 100 % of control | [16] 90 % of control

CCC[CH2][Sn]([CH2]C)([CH2]C)[CH2]C
inactive: [14] 96 % of control | [15] 101 % of control

FC(F)(F)S.[Ag]
inactive: dose: 75.0 mg/kg/injection, schedule: Q01DX001 (ip), vehicle: saline 95 % of control | dose: 150.0 mg/kg/injection, schedule: Q01DX001 (ip), vehicle: saline 95 % of control

CC(C)CCCC(C)C1CCC2C3CC=C4CC(=O)CCC4(C)C3CCC12C (stereo unspecified)
inactive: dose: 100.0 mg/kg/injection, schedule: Q04DX002 (ip), vehicle: saline with Tween-80 98 % of control | dose: 400.0 mg/kg/injection, schedule: Q04DX002 (ip), vehicle: saline with Tween-80 88 % of control

NC(CCC(=O)NC1(C(=O)O)C2CC3CC(C2)CC1C3)C(=O)O (stereo unspecified)
inactive: [1] 87 % of control | [2] 103 % of control | [3] 89 % of control

CCCCCCCNC(C)=O
inactive: [9] 99 % of control | [5] 106 % of control | [10] 116 % of control | [6] 95 % of control | [4] 92 % of control | [11] 99 % of control

O=c1[nH]c(=O)n(C2OC(CO)C(O)C2O)cc1O (stereo unspecified)
inactive: dose: 100.0 mg/kg/injection, schedule: Q01DX001 (ip), vehicle: water 92 % of control | dose: 200.0 mg/kg/injection, schedule: Q01DX001 (ip), vehicle: water 94 % of control | dose: 400.0 mg/kg/injection, schedule: Q01DX001 (ip), vehicle: water 103 % of control

Cc1[nH]nc(-c2cccnc2)c1N=NN1CCC(C(N)=O)CC1
inactive: dose: 75.0 mg/kg/injection, schedule: Q01DX001 (ip), vehicle: other 103 % of control

COc1ccc(COC(=O)Nc2ccccc2C(F)(F)F)cc1
inactive: dose: 100.0 mg/kg/injection, schedule: Q01DX009 (ip), vehicle: gum acacia 89 % of control | dose: 200.0 mg/kg/injection, schedule: Q01DX009 (ip), vehicle: gum acacia 89 % of control

O=S(=O)(O)c1cc(O)c(S(=O)(=O)O)cc1O
inactive: [8] 98 % of control | [12] 92 % of control | [16] 110 % of control

O=C(Nc1ccc(F)cc1)C(Br)C(Br)c1ccccc1 (stereo unspecified)
inactive: [1] 88 % of control | [2] 102 % of control | [3] 91 % of control
